{"source": "patent US6727401B1", "about": "“Pressure sensitive adhesive matrix patch for the treatment of onychomycosis” (Watson Pharmaceuticals, Inc., priority 1998, dated 2004)", "key": {"[1]": {"assay": "In vitro human cadaver nail flux study, modified Franz cells, matrix patch", "assay_type": "in vitro ADME", "description": "The cumulative amount of drug permeated per unit area at any time t(Qt, μg/cm^2) was determined as follows: [formula]\nwhere Cn is the concentration (μg/ml) of the drug in the receiver sample for the corresponding sample time, V is the volume of fluid in the receiver chamber (˜6.3 cm^3), and A is the diffusion area of the cell (0.64 cm^2).\n(§1) In vitro human cadaver nail flux studies were conducted using modified Franz non-jacketed permeation cells. The temperature of the nail surface was maintained at 32° C. by placing the cells in a circulating water bath positioned over a stirring module. Human finger nail or toe nail was stored under frozen conditions in 0.02% (w/v) sodium azide solution. Nails that were greater than 1 cm^2 in area were used for the flux studies. Nails with dorsal side facing the donor compartment were sandwiched between two layers of a closed cell polyethylene foam film. Annular ring of 2.38 cm outer diameter and 0.95 cm inner diameter was cut from the backing film. The area of the donut hole (0.97 cm^2) is large enough to provide complete contact with the receiver media. The purpose of the foam backing film was to prevent any leakage of receiver medium from the cell assembly. The nails were allowed to hydrate at 32° C. overnight with 0.02% (w/v) sodium azide solution in the receiver compartment. The following morning, 0.71 cm^2 circular matrix patches were laminated onto the dorsal side of the nail. Each nail matrix sandwich was then loaded between the donor and receiver compartments of a diffusion cell, with the ventral side of nail facing the receiver compartment, and clamped in place."}, "[2]": {"assay": "Amount of drug retained in the nail after matrix patch application", "assay_type": "in vitro ADME", "conditions": "human, 48 hours", "description": "as §1\nThe remaining portion of nail was also dried, weighed, extracted in dimethyl sulfoxide and analyzed for drug content."}, "[3]": {"assay": "In vitro human cadaver skin flux study, modified Franz cells", "assay_type": "in vitro ADME", "description": "In vitro human cadaver skin flux studies were conducted using modified Franz non-jacketed permeation cells. The temperature of the skin surface was maintained at 32° C. by placing the cells in a circulating water bath positioned over a stirring module. The epidermal membrane was separated from the dermatomed human cadaver skin by the heat-separation method of Kligman and Christopher (Arch. Dermatol. 88:702 (1963)) involving the exposure of the full thickness skin to 60° C. heat for 60 seconds, after which time the stratum corneum and the epidermis (epidermal membrane) were gently peeled off the dermis.\nFor a matrix skin flux study, the heat separated human epidermal membrane was cut into rectangular strips. The matrix was cut into 0.71 cm^2 circular discs. […] At predetermined sampling intervals, the entire contents of the receiver compartment were collected for drug quantitation and the receiver compartment was filled with fresh receiver solution, taking care to eliminate any air bubbles at the skin/solution interface.\nFor the topical gel study, included for illustration purposes, a thin film of gel approximately 10 μl/cm^2, was applied to the stratum-corneum surface of a hydrated piece of human cadaver skin. […] At predetermined sampling intervals, the entire contents of the receiver compartment were collected for drug quantitation. […]"}, "[4]": {"conditions": "long term, high dose systemic therapy, cited from earlier work"}, "[5]": {"assay": "Amount of drug retained in the skin after matrix patch application", "conditions": "patch at 24 hours versus day 1 after oral administration"}}}
{"compound": "Clc1ccccc1C(c1ccccc1)(c1ccccc1)n1ccnc1", "note": "[clotrimazole]", "values": [{"measurement": "permeation across the nail", "setting": "[1]", "result": "no permeation"}, {"measurement": "amount of drug retained in the nail per unit dry weight of nail", "setting": "[2]", "result": "greater than 500 μg/g"}, {"measurement": "skin flux without an enhancer", "setting": "[3]", "result": "below the detection limit"}]}
{"compound": "CC(=O)N1CCN(c2ccc(OCC3COC(Cn4ccnc4)(c4ccc(Cl)cc4Cl)O3)cc2)CC1", "note": "(centres unmarked) [ketoconazole]", "values": [{"measurement": "effect of the presence of an enhancer on skin flux", "setting": "[3]; enhancer lauramide-DEA, acrylic pressure sensitive adhesive", "result": "doubles the flux"}, {"measurement": "reported liver toxicity", "setting": "[4]", "result": "liver toxicity effects"}, {"measurement": "reported effect on testosterone levels in blood", "setting": "[4]; due to adverse effects on the testes", "result": "reduces testosterone levels in blood"}]}
{"compound": "OC(Cn1cncn1)(Cn1cncn1)c1ccc(F)cc1F", "note": "[fluconazole]", "values": [{"measurement": "permeation across the nail", "setting": "[1]", "result": "no permeation"}, {"measurement": "times higher amount of drug in the nail after patch application compared to reported oral administration", "setting": "[2]", "result": "1000-2000 times"}, {"measurement": "times higher amount of fluconazole in the skin compared to oral administration", "setting": "[5]", "result": "500-600 times"}]}
{"compound": "CN(C/C=C/C#CC(C)(C)C)Cc1cccc2ccccc12", "note": "[terbinafine]", "values": [{"measurement": "permeation across the nail", "setting": "[1]", "result": "no permeation"}, {"measurement": "times higher amount of drug in the nail after patch application compared to reported oral administration", "setting": "[2]", "result": "100-1000 times"}]}
